We go through 1 molecule from patent publication US20090057617A1, “Corrosion inhibitors containing anionic surfactants” (priority 2007, published 2009).

The experiment in a line: Shell wheel test (corrosion inhibition). Conditions: 50 ppm of a 24% solution of the inhibitor; salt water/petroleum mixture 9:1, 5% NaCl, pH 3.5; 40 rpm, 70° C., 24 hours; from decrease in coupon mass, based on a blank value. The procedure:
The compounds according to the invention were tested as corrosion inhibitors in the Shell wheel test. Coupons of C steel (DIN 1.1203 with 15 cm^2 surface area) were immersed in a salt water/petroleum mixture (9:1,5% strength NaCl solution adjusted to pH 3.5 with acetic acid) and exposed to this medium at a speed of 40 rpm at 70° C. for 24 hours. The inhibitor dose was 50 ppm of a 24% solution of the inhibitor. The protection values were calculated from the decrease in the mass of the coupons, based on a blank value.

Consider `CCCCCCCC/C=C\CCCCCCCC(=O)NC(CCSC)C(=O)[O-].[K+]` (racemic) [example 2, N-Oleoyl-DL-methionine potassium Salt], for which the ø protection % was found to be 69%.
